Test results as given in patent EP1561465A2, “Methods of use of fluoroquinolone compounds against bacteria” (LG Life Sciences, Ltd., priority 1999, dated 2001).
Values after ≈ are worked out from the molar mass of the structure shown. Where two headings read alike, the source gives them in different places.

How the values were obtained:
Campylobacter jejuni [1] = assay: MIC by agar dilution (NCCLS M7-A4), 288 enteropathogenic isolates, gemifloxacin and 15 other antimicrobials; settings: for MIC: Campylobacter jejuni
Enterococcus faecium = assay: MIC by NCCLS broth microdilution, 1100 Japanese clinical isolates 1997-1998; type: cell-based; settings: for MIC: Enterococcus faecium
Streptococcus pyogenes [2] = assay: as above; type: cell-based; settings: Streptococcus pyogenes (n=51)
Serratia marcescens = assay: as above; type: cell-based
Moraxella catarrhalis = assay: MIC by two-fold serial agar dilution, Sensitivity Disk agar-N (Kitasato isolates); type: cell-based; settings: Moraxella catarrhalis (22)
Shigella spp. = assay: MIC by agar dilution (NCCLS M7-A4), 288 enteropathogenic isolates, eight quinolones; type: cell-based; settings: Shigella spp. (n = 21)
Campylobacter jejuni [3] = assay: MIC by agar dilution (NCCLS M7-A4), 5% sheep blood, microaerophilic 48 h; type: cell-based; settings: Campylobacter jejuni (n=91)
Staphylococcus aureus [4] = assay: MIC by NCCLS broth microdilution, 1100 Japanese clinical isolates 1997-1998; type: cell-based; settings: for MIC: Staphylococcus aureus quinolone resistant, read-out: MIC
Hafnia alvei = assay: MIC by agar dilution (NCCLS M7-A4), 288 enteropathogenic isolates, eight quinolones; type: cell-based; settings: Hafnia alvei (n = 32)
Staphylococcus aureus [5] = assay: MIC by NCCLS reference broth microdilution, 450 respiratory tract pathogens; type: cell-based
Klebsiella pneumoniae = assay: as above; type: cell-based; settings: for MIC50 / MIC90: Klebsiella pneumoniae
Aeromonas spp. = assay: MIC by agar dilution (NCCLS M7-A4), 288 enteropathogenic isolates, eight quinolones; type: cell-based; settings: Aeromonas spp. (n = 16)
Staphylococcus aureus [6] = assay: MIC by agar dilution (NCCLS), 411 isolates Buenos Aires 1998-99; type: cell-based; settings: for MIC90: Staphylococcus aureus
Streptococcus pyogenes [7] = assay: MIC by NCCLS reference broth microdilution, 450 respiratory tract pathogens; type: cell-based; settings: Streptococcus pyogenes
[8] = Staphylococcus aureus, Staphylococcus aureus oxacillin resistant (n=57)
[9] = β-lactamase positive and erythromycin resistant (n = 10)
[10] = extended spectrum β-lactamase negative (n = 30)
[11] = extended spectrum β-lactamase positive (n = 20)
[12] = S. aureus, Methicillin resistant (n = 14)
[13] = S. aureus, Methicillin susceptible (n = 66)
[14] = erythromycin resistant C phenotype [MLSB] (n = 20)
[15] = erythromycin resistant I phenotype [MLSB] (n = 20)

C[C@H]1COc2c(N3CCN(C)CC3)c(F)cc3c(=O)c(C(=O)O)cn1c23 [Levofloxacin, levofloxacin]
MIC (mg/L) Range (Campylobacter jejuni [1]; Campylobacter jejuni N= 91): 0.06 to 128 mg/L | MIC (Campylobacter jejuni [1]; read-out: MIC (mg/L) 50%): 8 mg/L (≈ 22.1 µM) | MIC (Campylobacter jejuni [1]; read-out: MIC (mg/L) 90%): 32 mg/L (≈ 88.6 µM) | MIC50 (Enterococcus faecium; Enterococcus faecium (n=39)): 32 µg/mL (≈ 88.6 µM) | MIC90 (Enterococcus faecium; Enterococcus faecium (n=39)): 128 µg/mL (≈ 354 µM) | MIC (Enterococcus faecium; Enterococcus faecium (vanA) vancomycin resistant, strain TMS1): 64 µg/mL (≈ 177 µM) | MIC (Enterococcus faecium; Enterococcus faecium (vanA) vancomycin resistant, strain TMS2): 2 µg/mL (≈ 5.53 µM) | MIC (Enterococcus faecium; Enterococcus faecium (vanA) vancomycin resistant, strain TMS3): 32 µg/mL (≈ 88.6 µM) | MIC (Enterococcus faecium; Enterococcus faecium (vanA) vancomycin resistant, strain TMS4): 32 µg/mL (≈ 88.6 µM) | MIC (Enterococcus faecium; Enterococcus faecium (vanA) vancomycin resistant, strain TMS5): 4 µg/mL (≈ 11.1 µM) | MIC (Enterococcus faecium; Enterococcus laecium (van B) vancomycin resistant, strain TMS6): 32 µg/mL (≈ 88.6 µM) | MIC (Enterococcus faecium; Enterococcus laecium (van B) vancomycin resistant, strain TMS7): 32 µg/mL (≈ 88.6 µM) | MIC90 (Streptococcus pyogenes [2]): 2 µg/mL (≈ 5.53 µM) | MIC Range (Streptococcus pyogenes [2]): 0.5 to 2 µg/mL | MIC50 (Serratia marcescens; Serratia marcescens): 0.125 µg/mL (≈ 0.346 µM) | MIC90 (Serratia marcescens; Serratia marcescens (n=30)): 0.5 µg/mL (≈ 1.38 µM) | MIC Range (Serratia marcescens; Serratia marcescens (n=30)): 0.063 to 32 µg/mL | MIC50 (Moraxella catarrhalis): 0.063 µg/mL (≈ 0.174 µM) | MIC90 (Moraxella catarrhalis): 0.063 µg/mL (≈ 0.174 µM) | MIC Range (Moraxella catarrhalis): 0.031 to 0.063 µg/mL | % Susceptible (Shigella spp.): 100% | MIC50 (Shigella spp.): 0.03 µg/mL (≈ 0.083 µM) | MIC90 (Shigella spp.): 0.03 µg/mL (≈ 0.083 µM) | % Susceptible (Campylobacter jejuni [3]): 31.86% | MIC50 (Campylobacter jejuni [3]): 8 µg/mL (≈ 22.1 µM) | MIC90 (Campylobacter jejuni [3]): 32 µg/mL (≈ 88.6 µM) | MIC Range (Campylobacter jejuni [3]): 0.06 to 128 µg/mL | MIC Range (Staphylococcus aureus [4]; Staphylococcus aureus oxacillin susceptible (n=41)): 0.125 to 1 µg/mL | MIC50 (Staphylococcus aureus [4]; [8]): 4 µg/mL (≈ 11.1 µM) | MIC90 (Staphylococcus aureus [4]; [8]): 64 µg/mL (≈ 177 µM) | MIC50 (Staphylococcus aureus [4]; Staphylococcus aureus, Staphylococcus aureus oxacillin susceptible (n=41)): 0.25 µg/mL (≈ 0.692 µM) | MIC (Staphylococcus aureus [4]; Staphylococcus aureus, strain TMS3): > 128 µg/mL | MIC (Staphylococcus aureus [4]; Staphylococcus aureus, strain TMS4): 16 µg/mL (≈ 44.3 µM) | MIC (Staphylococcus aureus [4]; Staphylococcus aureus, strain TMS5): 4 µg/mL (≈ 11.1 µM) | MIC (Staphylococcus aureus [4]; Staphylococcus aureus, strain TMS6): 2 µg/mL (≈ 5.53 µM) | % Susceptible (Hafnia alvei): 100% | MIC50 (Hafnia alvei): 0.03 µg/mL (≈ 0.083 µM) | MIC90 (Hafnia alvei): 0.03 µg/mL (≈ 0.083 µM) | MIC Range (Hafnia alvei): ≤0.015 to 0.03 µg/mL | MIC (Staphylococcus aureus [5]; Staphylococcus aureus (n = 50)): 0.03 to 2 µg/mL (≈ 0.083 to 5.53 µM) | MIC50 (Staphylococcus aureus [5]; Staphylococcus aureus (n = 50)): 1 µg/mL (≈ 2.77 µM) | MIC90 (Staphylococcus aureus [5]; Staphylococcus aureus (n = 50)): 2 µg/mL (≈ 5.53 µM) | MIC (Staphylococcus aureus [5]; β-lactamase negative (n = 20)): 0.03 to 2 µg/mL (≈ 0.083 to 5.53 µM) | MIC50 (Staphylococcus aureus [5]; β-lactamase negative (n = 20)): 2 µg/mL (≈ 5.53 µM) | MIC90 (Staphylococcus aureus [5]; β-lactamase negative (n = 20)): 2 µg/mL (≈ 5.53 µM) | MIC (Staphylococcus aureus [5]; β-lactamase positive (n = 20)): 1 to 2 µg/mL (≈ 2.77 to 5.53 µM) | MIC50 (Staphylococcus aureus [5]; β-lactamase positive (n = 20)): 1 µg/mL (≈ 2.77 µM) | MIC90 (Staphylococcus aureus [5]; β-lactamase positive (n = 20)): 2 µg/mL (≈ 5.53 µM) | MIC50 (Staphylococcus aureus [5]; [9]): 1 µg/mL (≈ 2.77 µM) | MIC90 (Staphylococcus aureus [5]; [9]): 2 µg/mL (≈ 5.53 µM) | MIC Range (Klebsiella pneumoniae; Klebsiella pneumoniae (n = 50)): 0.15 to 1 µg/mL | MIC50 (Klebsiella pneumoniae; Klebsiella pneumoniae (n = 50)): 0.06 µg/mL (≈ 0.166 µM) | MIC90 (Klebsiella pneumoniae; Klebsiella pneumoniae (n = 50)): 0.5 µg/mL (≈ 1.38 µM) | MIC50 (Klebsiella pneumoniae; [10]): 0.06 µg/mL (≈ 0.166 µM) | MIC90 (Klebsiella pneumoniae; [10]): 0.12 µg/mL (≈ 0.332 µM) | MIC50 (Klebsiella pneumoniae; [11]): 0.5 µg/mL (≈ 1.38 µM) | MIC90 (Klebsiella pneumoniae; [11]): 0.5 µg/mL (≈ 1.38 µM) | MIC Range (Klebsiella pneumoniae; [10]): 0.015 to 0.5 µg/mL | MIC Range (Klebsiella pneumoniae; [11]): 0.06 to 1 µg/mL | % Susceptible (Aeromonas spp.): 100% | MIC50 (Aeromonas spp.): ≤ 0.015 µg/mL | MIC90 (Aeromonas spp.): ≤ 0.015 µg/mL | MIC Range (Aeromonas spp.): ≤0.015 to 0.06 µg/mL | Resistance (%) (Staphylococcus aureus [6]; [12]): 100% | Resistance (%) (Staphylococcus aureus [6]; [13]): 0% | MIC Range (Staphylococcus aureus [6]; Staphylococcus aureus (n = 80)): 0.06 to 8 µg/mL | MIC90 (Staphylococcus aureus [6]; [12]): 8 µg/mL (≈ 22.1 µM) | MIC90 (Staphylococcus aureus [6]; [13]): 0.25 µg/mL (≈ 0.692 µM) | MIC90 (Staphylococcus aureus [6]; Staphylococcus aureus (n = 80)): 4 µg/mL (≈ 11.1 µM) | MIC (Streptococcus pyogenes [7]; Streptococcus pyogenes (n = 100)): 0.06 to 2 µg/mL (≈ 0.166 to 5.53 µM) | MIC (Streptococcus pyogenes [7]; [14]): 0.25 to 1 µg/mL (≈ 0.692 to 2.77 µM) | MIC50 (Streptococcus pyogenes [7]; [14]): 0.25 µg/mL (≈ 0.692 µM) | MIC90 (Streptococcus pyogenes [7]; [14]): 0.25 µg/mL (≈ 0.692 µM) | MIC (Streptococcus pyogenes [7]; [15]): 0.25 to 2 µg/mL (≈ 0.692 to 5.53 µM) | MIC50 (Streptococcus pyogenes [7]; [15]): 0.25 µg/mL (≈ 0.692 µM) | MIC90 (Streptococcus pyogenes [7]; [15]): 0.25 µg/mL (≈ 0.692 µM) | MIC (Streptococcus pyogenes [7]; erythromycin resistant M phenotype (n = 20)): 0.06 to 1 µg/mL (≈ 0.166 to 2.77 µM) | MIC (Streptococcus pyogenes [7]; fully susceptible (n = 20)): 0.25 to 2 µg/mL (≈ 0.692 to 5.53 µM) | MIC (Streptococcus pyogenes [7]; multi-drug resistant (n = 20)): 0.25 to 1 µg/mL (≈ 0.692 to 2.77 µM)
